Legend:
[1] = test system: FANCD2-Ub and FANCI-Ub levels in HeLa cells; experiment: cell-based assay of monoubiquitinated FANCD2 and FANCI levels by immunoblotting; design: species or system human; details: eight hours, increasing concentrations, FIG. 3
Experimental: Candidate USP1 inhibitors from initial and secondary screens were then used in cell-based assays to look for USP1 inhibition in vivo using levels of FANCD2-Ub and PCNA-Ub as biomarkers for inhibition. For the cell-based assay, cells were treated with the candidate compounds and levels of monoubiquitinated FANCD2 and PCNA were tested both with and without DNA damage. USP1 inhibition was detected as high level of endogenous monoubiquitinated FANCD2 and PCNA. For this assay HeLa and HEK293T cells were treated with selected concentrations of these compounds and grown in Dulbecco's modified Eagle's medium supplemented with 15% heat-inactivated fetal calf serum in a humidified 5% CO2 incubator at 37° C. Damage was induced by both UV irradiation using Stratalinker (Stratagene) and treatment with mitomycin C (MMC, Sigma). After cell lysis, levels of monoubiquitinated FANCD2 and PCNA in whole cell lysate was tested by immunoblotting with anti-FANCD2 antibody (sc-20022; Santa Cruz Biotechnology) and anti-PCNA antibody (sc-56; Santa Cruz Biotechnology). Protection from chromosome aberrations were also tested in UV/MMC-damaged cells treated with candidate USP1 inhibitors using standard chromosome breakage assay. Yang et al. (2001) Blood 98:3435-40. […]

native USP1 = target: T1, native USP1 (Homo sapiens, UniProt O94782); experiment: HA-Ub-VS labelling of native USP1 in HeLa cell extracts; assay type: biochemical; details: HeLa cell extracts pretreated 4 h, then Ub-VS 40 min at 30° C.; FIG. 7
T1 construct: endogenous in cells; host or cells: HeLa cell extract
T1 sequence (O94782 whole entry): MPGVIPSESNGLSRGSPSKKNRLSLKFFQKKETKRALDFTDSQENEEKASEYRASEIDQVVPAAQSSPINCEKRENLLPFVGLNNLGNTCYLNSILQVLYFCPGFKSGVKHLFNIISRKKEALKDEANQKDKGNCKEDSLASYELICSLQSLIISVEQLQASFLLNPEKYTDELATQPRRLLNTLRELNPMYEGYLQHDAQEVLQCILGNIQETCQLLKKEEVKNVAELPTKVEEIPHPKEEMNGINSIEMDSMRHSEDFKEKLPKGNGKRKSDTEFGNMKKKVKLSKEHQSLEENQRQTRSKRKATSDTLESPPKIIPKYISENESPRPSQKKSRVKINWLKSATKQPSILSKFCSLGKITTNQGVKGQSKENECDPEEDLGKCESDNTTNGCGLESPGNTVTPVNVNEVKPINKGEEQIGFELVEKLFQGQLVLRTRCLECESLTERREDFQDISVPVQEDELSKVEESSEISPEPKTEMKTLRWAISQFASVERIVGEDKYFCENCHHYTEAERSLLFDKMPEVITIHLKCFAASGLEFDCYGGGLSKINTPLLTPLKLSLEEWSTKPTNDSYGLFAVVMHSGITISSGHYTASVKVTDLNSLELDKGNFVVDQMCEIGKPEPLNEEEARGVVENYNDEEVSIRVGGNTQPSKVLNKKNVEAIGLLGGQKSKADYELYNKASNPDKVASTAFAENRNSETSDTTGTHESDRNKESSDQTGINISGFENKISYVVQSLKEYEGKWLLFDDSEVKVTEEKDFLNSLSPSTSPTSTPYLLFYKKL
T1 sequence (Q8TAF3 whole entry partner): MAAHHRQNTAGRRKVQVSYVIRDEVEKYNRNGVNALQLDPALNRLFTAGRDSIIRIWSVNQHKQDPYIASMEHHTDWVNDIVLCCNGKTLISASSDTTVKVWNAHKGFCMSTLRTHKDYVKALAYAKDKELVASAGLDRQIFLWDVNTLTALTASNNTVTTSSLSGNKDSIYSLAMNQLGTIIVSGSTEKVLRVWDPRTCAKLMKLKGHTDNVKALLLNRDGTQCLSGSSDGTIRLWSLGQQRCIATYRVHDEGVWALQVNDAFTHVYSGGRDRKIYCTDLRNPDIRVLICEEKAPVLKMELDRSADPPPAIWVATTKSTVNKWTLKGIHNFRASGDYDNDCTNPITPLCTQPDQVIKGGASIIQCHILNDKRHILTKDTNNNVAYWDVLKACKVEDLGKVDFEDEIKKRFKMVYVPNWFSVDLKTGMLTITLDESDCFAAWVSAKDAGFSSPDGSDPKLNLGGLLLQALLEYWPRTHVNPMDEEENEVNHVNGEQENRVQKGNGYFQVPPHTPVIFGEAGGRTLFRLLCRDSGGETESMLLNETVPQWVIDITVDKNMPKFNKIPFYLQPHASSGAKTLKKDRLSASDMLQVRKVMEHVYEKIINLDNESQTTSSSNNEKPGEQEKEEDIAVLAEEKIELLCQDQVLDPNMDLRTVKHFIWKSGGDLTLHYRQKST
Experimental: FIG. 7 is a composite figure depicting preferential inhibition of the activity of native USP1/UAF1 by C527. HeLa cell extracts were incubated with ubiquitin-aldehyde (Ub-Ald, 5 μM) or C527 at indicated concentrations for 4 h, followed by the addition of 0.5 μM Ub-Vs for 40 min. The reaction was split into two aliquots and subjected to immunoblotting for HA or USP1, respectively.
The ability of C527 to inhibit the deubiquitinating activity of native USP1 complexes derived from human cells was determined next (FIG. 7). For this purpose, the HA-tagged ubiquitin-VS, an affinity reagent known to covalently modify and trap active DUB enzymes in cell extracts was used. Cell extracts prepared from HeLa cells were pretreated with increasing concentrations of C527 for 4 h, followed by the incubation with Ub-VS for 40 min at 30° C. The enzymatic activity of endogenous DUBs was indicated by the conjugation of Ub-VS, detected as HA-labeling (see FIG. 7, high molecular weight bands). […] Ub-VS conjugation was inhibited by ubiquitin-aldehyde (Ub-Ald), a non-specific inhibitor of DUBs (lane 3).

UCH-L1 = target: T2, UCH-L1 (Homo sapiens, UniProt P09936); experiment: ubiquitin-AMC assay with UCH-L1; assay type: biochemical; details: in vitro
T2 sequence (P09936 1-223): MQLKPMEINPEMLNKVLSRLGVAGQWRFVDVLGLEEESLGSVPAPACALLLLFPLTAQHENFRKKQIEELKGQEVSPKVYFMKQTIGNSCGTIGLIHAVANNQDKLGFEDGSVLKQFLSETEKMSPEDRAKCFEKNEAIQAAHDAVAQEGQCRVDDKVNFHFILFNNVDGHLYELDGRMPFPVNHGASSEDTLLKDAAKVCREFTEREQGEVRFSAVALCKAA
Experimental: FIG. 6 is a composite figure showing that C527 is a pan-deubiqutinating enzyme inhibitor […]. Ubiquitin-AMC assay was performed using purified (FIG. 6A) USP12/UAF1/WDR20 (FIG. 6B) USP5 and (FIG. 6C) UCH-L1. Enzymes were incubated with DMSO or C527 at indicated concentrations for 3 h, followed by the addition of Ub-AMC at 0.5 μM final concentration. The fluorescence at […] was measured to indicate the enzymatic activity. FIG. 6D is a summary showing the IC50 of C527 against the indicated enzymes.
The in vitro enzymatic assays were performed using purified proteins from Sf9 cells as described previously (Cohn et al.). The assays using ubiquitin-AMC (Ub-7-amido-4-methylcoumarin; Boston Biochem) as substrate was carried out in a reaction buffer containing 20 mM HEPES-KOH (pH 7.8), 20 mM NaCl, 0.1 mg/ml ovalbumin, 0.5 mM EDTA and 10 mM dithiothreitol. The fluorescence was measured by FluoStar Galaxy Fluorometer (BMG Labtech). For the Ub-vinylsulfone (VS) assay, the proteins were incubated with Ub-VS at 0.5 μM final concentration for 1 h at 30° C., followed by the immunoblotting analysis.
To examine the specificity of C527 in USP1/UAF1 inhibition, its ability to inhibit other DUB enzymes in vitro was examined. […] Moreover, the active complex of USP12 contains an additional WD40 subunit (WDR20). […]

O=C1c2ccccc2C(=O)c2oc(-c3ccc(F)cc3)nc21 [Formula IV (527)] was tested. Which FANCD2-Ub levels [1] did it give?
The FANCD2-Ub levels was “dose-dependent increase”.

What about the FANCI-Ub levels [1] of the same compound?
The FANCI-Ub levels was “dose-dependent increase”.

What about the “USP1 binding to Ub-VS” value (native USP1) of the same compound?
The value was “did inhibit USP1 binding to Ub-VS in the same reaction in a dose-dependent manner”.

And the “inhibitory effect on UCH-L1” value (UCH-L1)?
Its value is “considerably less inhibitory effect”.

From patent US10653676B2 (Dana-Farber Cancer Institute, Inc., priority 2010, dated 2020)
